Assay results: patent US20100179200A1, “2-OXOTHIAZOLIDINE 4-CARBOXYLIC ACID COMPOUNDS FOR PROMOTING DESQUAMATION OF THE SKIN” (SOCIETE L'OREAL, S.A., priority 2000, published 2010)

Assays:
[1] = test system: corneodesmosine; experiment: Evaluating desquamation by measuring the degradation of corneodesmosines (immunoblot of stratum corneum acetonic powders); assay type: biochemical, human; conditions: aqueous solution containing 2% of active agent, pH 8.0, incubation 17 h at 30° C., versus control without active agent
Excerpt: Corneodesmosine is one of the major markers of desquamation of the corneodesmosome. It is studied by immunoblotting after separation by electrophoresis and transfer onto a membrane.
The mouse monoclonal antibody G36-19 is specific for corneodesmosine; it fauns part of a series of antibodies directed against epidermal differentiation antigens, produced after immunizing a mouse with a homogenate of human plantar horny layer, and then characterized (Serre G. et al., J. Invest. Dermatol. 1991; 97(6):1061-72).
Varnish-stripping operations are carried out on the lower legs of volunteers (modification of the procedure by Lundström A. and Egelrud T., Acta Derm. Venereol. (Stockholm) 71, 471-474, 1991). […]
The samples and also a Rainbow (Amersham Pharmacia Biotech) low molecular weight standard at 1/3 are separated by electrophoresis on gel containing 12% acrylamide for 30 minutes at 100 V and then for 1 hour at 200 V. After the electrophoresis, the proteins are transferred onto an Immobilon-P membrane (Millipore) for 3 hours at 60 V. The membrane is then incubated for twice 15 minutes in TBS-TL buffer: 25 mM Tris, 0.15M NaCl pH 7.2, 0.05% Tween 20, 0.5% skimmed milk powder, in order to block the non-specific sites. […] The chemiluminescence of the corneodesmosine bands is measured with the FluorS Multimager (Biorad). The 33 and 46 kD bands are quantified with the Quantity-one software (Biorad). […]

[2] = Solubility of procysteine; assay type: physicochemical

solubility in ethanol ([2]; ethanol): greater than 10%
solubility in water ([2]; water): greater than 4%
SMILES: O=C1N[C@H](C(=O)O)CS1 [Procysteine, L-2-oxothiazolidine-4-carboxylic acid]
Percentage increase in corneodesmosine degradation [1]: 77%
